From US9302998B2, “Aryl triazole compounds with antitumoural activity” (SIGMA-TAU RESEARCH SWITZERLAND S.A., priority 2010, dated 2016) come the findings set out here.

Test [1] concerns NCI-H460 non-small cell lung carcinoma. Kind of test: Cytotoxicity assay, sulphorodamine B test, NCI-H460. Particulars: Homo sapiens, NCI-H460; 72 h, sulphorodamine B. Type of test: cell-based. A digest of the protocol: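 NCI-H460 cells grown in RPMI 1640 with 10% FBS, seeded at ~10% confluence and left 24 h before graded compound concentrations were added for 72 h at 37 °C. TCA-fixed cells stained with 0.4% sulphorodamine B; OD 540 nm vs control cultures gave IC50 for 50% inhibition of survival.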

The next test has as its system HeLa cervix uteri. Kind of test: Sulphorodamine B test at single concentration, HeLa. Type of test: cell-based. Particulars: Homo sapiens, 500 nM, 72 h. A digest of the protocol: (§1)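 Cells in RPMI 1640 with 10% FBS, seeded at about 10% confluence and allowed 24 h recovery, then treated with a single 500 nM concentration for 72 h at 37° C., in octuplicate. TCA-fixed cells were stained with sulphorodamine B, OD read at 540 nm; cell kill was derived as % decrease in staining versus controls. NB4 suspension cells were centrifuged after incubation.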

A further test concerns MeWo melanoma. Kind of test: Sulphorodamine B test at single concentration, MeWo. Type of test: cell-based. Particulars: Homo sapiens, 500 nM, 72 h. Put shortly: (§2)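 Cells in EMEM with 10% FBS, seeded at ~10% confluence, attached 24 h, then exposed to 500 nM compound for 72 h at 37 °C, octuplicate. TCA fixation, sulphorodamine B staining, OD at 540 nm; killing expressed as % decrease in dye binding versus control cultures.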

In test [2] the test system is NB4 promyelocytic leukemia. Kind of test: Sulphorodamine B test at single concentration, NB4. The conditions noted are these: 500 nM, 72 h, suspension cells. It is filed as cell-based. Put shortly:
as §1

A further test concerns HCT116 colon. Kind of test: Sulphorodamine B test at single concentration, HCT116. Type of test: cell-based. Particulars: Homo sapiens, HCT-116; 500 nM, 72 h. Put shortly:
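HCT116 colon cells in McCoy's medium with 10% FBS were seeded at ~10% confluence, left 24 h, then exposed to a single 500 nM inhibitor concentration for 72 h at 37°C, in octuplicate. TCA-fixed cells stained with sulphorhodamine B, OD at 540 nm; percent decrease versus control cultures.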

Another test relates to A2780 ovarian. Kind of test: Sulphorodamine B test at single concentration, A2780. Type of test: cell-based. The conditions noted are these: Homo sapiens, 500 nM, 72 h. A digest of the protocol:
as §1

In another test the test system is U87MG glioblastoma. Kind of test: Sulphorodamine B test at single concentration, U87MG. It is filed as cell-based. Particulars: Homo sapiens, U-87 MG; 500 nM, 72 h. A digest of the protocol: as §2
In the next test the test system is MiaPaCa2 pancreas. Kind of test: Sulphorodamine B test at single concentration, MiaPaCa2. It is filed as cell-based. The conditions noted are these: Homo sapiens, MIA PaCa-2; 500 nM, 72 h. Put shortly:
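MiaPaCa2 cells in DMEM with 10% FBS were attached for 24 h, then exposed to a single 500 nM inhibitor concentration for 72 h at 37° C, in octuplicate. Following TCA fixation, sulphorodamine B staining was read as OD at 540 nm; cell kill was the percent decrease in dye binding versus control cultures.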

A further test deals with A498 renal. Kind of test: Sulphorodamine B test at single concentration, A498. Type of test: cell-based. The conditions noted are these: Homo sapiens, 500 nM, 72 h. Put shortly:
as §1

The target in a further test is T1, Hsp90 (Homo sapiens, UniProt P07900).
T1 construct: purchased Stressgen SPP-776
Kind of test: Fluorescence Polarization (FP) binding, GM-BODIPY displacement from Hsp90. The conditions noted are these: GM-BODIPY tracer, 4° C. for 4 hours. A digest of the protocol:
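Hsp90 (125 nM) was mixed with 100 nM GM-BODIPY tracer and serially diluted compounds in HEPES-K buffer (pH 7.3, KCl, MgCl2, Na2MoO4, 0.01% NP40, fresh bovine gamma globulin and 2 mM DTT). Plates were shaken 4 h at 4 °C before FP (mP) reading. IC50 is the concentration displacing 50% of tracer, from nonlinear least-squares fits of triplicate means.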

For another test, the system named is A431 epidermoid. Kind of test: Sulphorodamine B test at single concentration, A431. Type of test: cell-based. Particulars: Homo sapiens, A-431; 500 nM, 72 h. Put shortly:
as §1

Test [3] concerns MDA-MB436 triple-negative breast. Kind of test: Sulphorodamine B test at single concentration, MDA-MB436. Type of test: cell-based. The conditions noted are these: Homo sapiens, MDA-MB-436; 500 nM, 72 h. A digest of the protocol: as §1

A value given as a limit tells only on which side of the number the result lay.

Usually IC50 stands for the midpoint of a concentration-inhibition curve. The inhibition is the drop in the measured response relative to a control, in per cent. Read a low inhibition as a response near the control.

Consider `CCNC(=O)c1nnn(-c2cc(C(C)C)c(O)cc2O)c1-c1ccc(CN2CCCCC2CCO)cc1` (stereo not drawn) [Example 8, 1-(2,4-dihydroxy-5-isopropyl-phenyl)-5-{4-[2-(2-hydroxy-ethyl)-piperidin-1-ylmethyl]-phenyl}-1H-[1,2,3]triazole-4-carboxylic acid ethylamide], for which the IC50 was 100 to 500 nM in test [1] and less than 50 nM at Hsp90. In addition, the inhibition at 0.5 µM (in the test with HeLa cervix uteri; in the test on MeWo melanoma; in test [2]; with HCT116 colon; with A2780 ovarian; in the test on U87MG glioblastoma) was not below 50% in each case. For the same compound, the inhibition at 0.5 µM in the test on MiaPaCa2 pancreas is not below 50%; with A498 renal, 30 to 50%; in the test with A431 epidermoid it was not below 50%; in test [3], not below 50%.
Consider `CCNC(=O)c1nnn(-c2cc(C(C)C)c(O)cc2O)c1-c1ccc(CNCC2CCCCC2)cc1` [Example 15, 5-{4-[(cyclohexylmethyl-amino)-methyl]-phenyl}-1-(2,4-dihydroxy-5-isopropyl-phenyl)-1H-[1,2,3]triazole-4-carboxylic acid ethylamide], for which the IC50 (in [1]; at Hsp90) was less than 50 nM throughout. The inhibition at 0.5 µM (with HeLa cervix uteri; in the test with MeWo melanoma; in test [2]; in the test with HCT116 colon; in the test on A2780 ovarian; with U87MG glioblastoma) was not below 50% in each case. The inhibition at 0.5 µM (with MiaPaCa2 pancreas; with A498 renal; in the test on A431 epidermoid; in test [3]) was not below 50% each time.
On to `CC(C)c1cc(-n2nnc(C(=O)NC3CCCCC3)c2-c2ccc(CN3CCOCC3)cc2)c(O)cc1O` [Example 29, 1-(2,4-dihydroxy-5-isopropyl-phenyl)-5-(4-morpholin-4-ylmethyl-phenyl)-1H-[1,2,3]triazole-4-carboxylic acid cyclohexylamide], for which the IC50 was less than 50 nM in [1] and 50 to 100 nM at Hsp90. Further, the inhibition at 0.5 µM (in the test with HeLa cervix uteri; with MeWo melanoma; in test [2]; with HCT116 colon; with A2780 ovarian; in the test with U87MG glioblastoma) was not below 50% throughout. Also, the inhibition at 0.5 µM (with MiaPaCa2 pancreas; with A498 renal; in the test on A431 epidermoid; in test [3]) was not below 50% in each case.
`CCNC(=O)c1nnn(-c2cc(C(C)C)c(O)cc2O)c1-c1ccc(CNCCN(CC)CC)cc1` [Example 17, 5-{4-[(2-diethylamino-ethylamino)-methyl]-phenyl}-1-(2,4-dihydroxy-5-isopropyl-phenyl)-1H-[1,2,3]triazole-4-carboxylic acid ethylamide]: the IC50 in test [1] is 100 to 500 nM; at Hsp90, less than 50 nM. The inhibition at 0.5 µM in the test on HeLa cervix uteri is 30 to 50%; in the test with MeWo melanoma, not below 50%; in [2] it was not below 50%; with HCT116 colon, 30 to 50%; in the test on A2780 ovarian it was not below 50%; in the test with U87MG glioblastoma it was not below 50%. The inhibition at 0.5 µM with MiaPaCa2 pancreas was not below 50%; in the test on A498 renal, 30 to 50%; in the test with A431 epidermoid, not below 50%; in test [3], not below 50%.
